Measurements as given in patent US4880636A, “Film coated tablet of ranitidine HCl” (priority 1988, dated 1989).
“Also recorded” adds a separate entry of the source. Structures can show the parent of a compound that is named as a salt.

What was measured:
[1] = cited from earlier work
[2] = Physicians' Desk Reference, 41st ed., page 993 (1987); cited from earlier work
[3] = Compatibility of plasticizer with ranitidine HCl; settings: plasticizer in polymeric film coating of ranitidine HCl tablets
[4] = Cast film plasticizer comparison study (discoloration); type: physicochemical; parameters: key: 1 = least discoloration; 5 = greatest discoloration; settings: ranitidine HCl spread on cast HPMC film with plasticizer (0.2 gm per gram HPMC); 60 degrees centigrade/78.9% RH, approximately two weeks; visual
Description: Cast film studies are performed using a typical film aqueous coating composition containing, on a per gram HPMC dry weight basis, plasticizer, 0.2 gm, and Opaspray (trademark of Colorcon, Inc., West Point, PA) colorant solids 0.5 gm. Cast films are prepared by adding 1.5 g of a 15% solids solution to a uniform plate, 42 mm in diameter, and drying at ambient temperature for at least 24 hours. Ranitidine HCl (1.5 gm), of particle size 50 to 200 microns, is then spread uniformly on the dried film coating and stored at 60 degrees centigrade/78.9% relative humidity (RH) for approximately two weeks. The RH is controlled by using a desiccator jar and a saturated KBr solution, which is maintained at 60° C. in a drying oven. […] After two weeks, the cast films are removed and visually examined for discoloration.

Cast Film Discoloration [4] | SMILES | reactivity with ranitidine HCl or promotion of its degradation [3] | other results
 | CNC(=C[N+](=O)[O-])NCCSCc1ccc(CN(C)C)o1 [ranitidine HCl] |  | solubility in water ([1]; 25° C.): greater than 900 mg/mL; solubility in commonly used organic solvents [1]: very soluble; degradation upon aging [2]: accelerated by heat, moisture and light
1 | CC(=O)OCC(COC(C)=O)OC(C)=O [Triacetin, 1,2,3-propanetriol triacetate] | essentially unreactive with ranitidine HCl | 
3 | CCOC(=O)CC(O)(CC(=O)OCC)C(=O)OCC [Triethyl Citrate, triethyl citrate] |  | 
5 | OCC(O)CO [Glycerol, glycerol] |  | 
 | CCOC(=O)c1ccccc1C(=O)OCC [diethyl phthalate] | tend to react with ranitidine HCl or promote degradation at the tablets' surfaces | 
 | CCCCOC(=O)CCCCCCCCC(=O)OCCCC [dibutyl sebecate] | tend to react with ranitidine HCl or promote degradation at the tablets' surfaces | 

SMILES | Cast Film Discoloration [4] | reactivity with ranitidine HCl or promotion of its degradation [3] | other results
CC(O)CO (centres unmarked) [Propylene Glycol, propylene glycol] | 2 | promote degradation; also recorded: tend to react with ranitidine HCl or promote degradation at the tablets' surfaces | 
